Source: the NIST ThermoML archive (doi:10.1016/j.tca.2013.09.006)

Experiment: mn = molality of the nth substance listed, in mol/kg
Settings: 101 kPa, Liquid; for mass density: Vibrating tube method; for speed of sound: vibrating tube:WF =

C[C@H](N)C(=O)N[C@@H](C)C(=O)O [L-alanyl-L-alanine] + O
Settings | mass density, 305.15 K [kg/m3] | mass density, 310.15 K [kg/m3] | mass density, 315.15 K [kg/m3] | speed of sound, 305.15 K [m/s] | speed of sound, 310.15 K [m/s] | speed of sound, 315.15 K [m/s]
m1 = 0.00215 | 995.223 | 993.535 | 991.641 | 1514.2 | 1524.5 | 1532.9
m1 = 0.00421 | 995.35 | 993.662 | 991.767 | 1514.4 | 1524.8 | 1533
m1 = 0.00596 | 995.458 | 993.769 | 991.873 | 1514.5 | 1524.9 | 1533.1
m1 = 0.00831 | 995.604 | 993.913 | 992.016 | 1514.7 | 1525.1 | 1533.2
m1 = 0.00955 | 995.68 | 993.989 | 992.092 | 1514.9 | 1525.3 | 1533.4
m1 = 0.01169 | 995.812 | 994.12 | 992.222 | 1515 | 1525.5 | 1533.6
m1 = 0.01422 | 995.968 | 994.275 | 992.376 | 1515.2 | 1525.6 | 1533.7
m1 = 0.01594 | 996.074 | 994.38 | 992.48 | 1515.3 | 1525.8 | 1533.9
m1 = 0.01778 | 996.187 | 994.493 | 992.592 | 1515.5 | 1526 | 1534.1
m1 = 0.01983 | 996.314 | 994.618 | 992.716 | 1515.7 | 1526.2 | 1534.2

CC1(C)SC2C(NC(=O)C(N)c3ccccc3)C(=O)N2C1C(=O)O (stereo not drawn) + O
Settings | mass density, 305.15 K [kg/m3] | mass density, 310.15 K [kg/m3] | mass density, 315.15 K [kg/m3] | speed of sound, 305.15 K [m/s] | speed of sound, 310.15 K [m/s] | speed of sound, 315.15 K [m/s]
m1 = 0.0005 | 995.062 | 993.352 | 991.353 | 1513.7 | 1523.7 | 1532.2
m1 = 0.002 | 995.271 | 993.569 | 991.665 | 1514.8 | 1524.8 | 1533
m1 = 0.004 | 995.458 | 993.755 | 991.87 | 1516 | 1526 | 1534
